Reference: ChEMBL document CHEMBL1201862, “PubChem BioAssay data set” (2004)
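How tested: cells in 96-well plates exposed to compound for 48 hours at five concentrations. GI50 marks 50% less growth.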 The source made the active and inactive calls. Rule as the data show it: active = GI50 up to about 1.1 µM and inactive = higher.

What was measured:
Test in all cases: inhibition of tumour cell growth, NCI panel, 48 h
[1] = test system: CCRF-CEM
[2] = test system: HL-60
[3] = test system: HT-29
[4] = test system: MCF7
[5] = test system: MDA-MB-231
[6] = test system: MDA-MB-435
[7] = test system: NCI-H226
[8] = test system: NCI/ADR-RES
[9] = test system: OVCAR-5
[10] = test system: OVCAR-8
[11] = test system: PC-3
[12] = test system: RXF 393
[13] = test system: SF-268
[14] = test system: SNB-19
[15] = test system: TK-10
[16] = test system: UO-31
[17] = test system: A549
[18] = test system: NCI-H460
[19] = test system: NCI-H522
[20] = test system: SNB-75

Compound	GI50 [1]	GI50 [2]	GI50 [3]	GI50 [4]	GI50 [5]	GI50 [6]	GI50 [7]	GI50 [8]	GI50 [9]	GI50 [10]	GI50 [11]	GI50 [12]	GI50 [13]	GI50 [14]	GI50 [15]	GI50 [16]	GI50 [17]	GI50 [18]	GI50 [19]	GI50 [20]
OC(COC(c1ccccc1)(c1ccccc1)c1ccccc1)C(O)CC1SCCS1 (centres undefined)	21.3 µM (inactive)	13.9 µM (inactive)	12.4 µM (inactive)	21.3 µM (inactive)	16.2 µM (inactive)	26.2 µM (inactive)	14.9 µM (inactive)	16.3 µM (inactive)	19.2 µM (inactive)	19.3 µM (inactive)	11.8 µM (inactive)	10.2 µM (inactive)	25.4 µM (inactive)	21.7 µM (inactive)	21 µM (inactive)	10.9 µM (inactive)				
CCOC(=O)C1=C(N)N2C(=N[C@H]3CCCC[C@@H]32)N=C1		> 100 µM (inactive)	> 100 µM (inactive)	> 100 µM (inactive)	> 100 µM (inactive)	> 100 µM (inactive)	73.6 µM (inactive)	> 100 µM (inactive)	> 100 µM (inactive)	> 100 µM (inactive)	> 100 µM (inactive)	> 100 µM (inactive)	> 100 µM (inactive)	> 100 µM (inactive)		> 100 µM (inactive)	> 100 µM (inactive)	> 100 µM (inactive)	> 100 µM (inactive)	38.3 µM (inactive)
COc1cc(/C=N\N(C)C)cc(/C=N/N(C)C)c1O	17.3 µM (inactive)	9.71 µM (inactive)	10.6 µM (inactive)	> 100 µM (inactive)	25.8 µM (inactive)	25.9 µM (inactive)	15.8 µM (inactive)	25.4 µM (inactive)			16.4 µM (inactive)	43.1 µM (inactive)	38.5 µM (inactive)	30.6 µM (inactive)	55.7 µM (inactive)	22 µM (inactive)	> 100 µM (inactive)	30.1 µM (inactive)	65.9 µM (inactive)	
CN(C)c1ccc(/C=C/c2ccnc3ccccc23)cc1	49.5 µM (inactive)	31.6 µM (inactive)	25.3 µM (inactive)	90.2 µM (inactive)	23.3 µM (inactive)	23.1 µM (inactive)		64.3 µM (inactive)	> 100 µM (inactive)		> 100 µM (inactive)	54.3 µM (inactive)	> 100 µM (inactive)	> 100 µM (inactive)	65.8 µM (inactive)	43.9 µM (inactive)	61.4 µM (inactive)	47.9 µM (inactive)		28.8 µM (inactive)
CN(C)CCOc1ccc2[nH]c(C(=O)N3CC(CCl)c4ccc(N)cc43)cc2c1 (centres undefined)	0.0381 µM (active)		< 0.0358 µM (active)	0.0266 µM (active)	1.39 µM (inactive)	0.0871 µM (active)	0.0776 µM (active)	0.0933 µM (active)	0.141 µM (active)	0.0912 µM (active)	0.0459 µM (active)	0.0182 µM (active)	0.0375 µM (active)	0.258 µM (active)	0.29 µM (active)	0.065 µM (active)	0.0667 µM (active)	0.0273 µM (active)	0.0154 µM (active)	0.112 µM (active)
COc1ccc(/C=N/n2c(Cc3ccc(Cl)cc3)n[nH]c2=O)cc1	> 100 µM (inactive)		13.6 µM (inactive)	77.8 µM (inactive)	8.93 µM (inactive)	> 100 µM (inactive)	36.2 µM (inactive)	32.8 µM (inactive)	29.5 µM (inactive)	16.7 µM (inactive)	92.5 µM (inactive)	16.8 µM (inactive)		15.7 µM (inactive)		> 100 µM (inactive)	43.6 µM (inactive)	> 100 µM (inactive)		16.6 µM (inactive)
O=[N+]([O-])c1ccc2c3ccccc3[s+]([O-])c2c1 (centres undefined)	> 100 µM (inactive)	88.5 µM (inactive)	> 100 µM (inactive)	74 µM (inactive)	> 100 µM (inactive)	> 100 µM (inactive)	> 100 µM (inactive)	> 100 µM (inactive)	> 100 µM (inactive)	> 100 µM (inactive)	> 100 µM (inactive)		> 100 µM (inactive)	> 100 µM (inactive)	> 100 µM (inactive)		> 100 µM (inactive)	> 100 µM (inactive)	> 100 µM (inactive)	> 100 µM (inactive)
Cc1cc2c(cc1C)C(=O)/C(=N/Nc1ccc(F)cc1)CCO2	> 100 µM (inactive)	26.4 µM (inactive)	24.6 µM (inactive)	> 100 µM (inactive)	> 100 µM (inactive)	> 100 µM (inactive)	> 100 µM (inactive)	> 100 µM (inactive)	> 100 µM (inactive)	> 100 µM (inactive)	> 100 µM (inactive)		> 100 µM (inactive)	> 100 µM (inactive)	> 100 µM (inactive)	> 100 µM (inactive)	> 100 µM (inactive)	> 100 µM (inactive)	> 100 µM (inactive)	
O=c1c2c3c(sc2nc2n1N=CN(c1ccccc1)C2)CCCC3	> 100 µM (inactive)		> 100 µM (inactive)	> 100 µM (inactive)	> 100 µM (inactive)	> 100 µM (inactive)	> 100 µM (inactive)	> 100 µM (inactive)	> 100 µM (inactive)	> 100 µM (inactive)	> 100 µM (inactive)	> 100 µM (inactive)	> 100 µM (inactive)	> 100 µM (inactive)	> 100 µM (inactive)	> 100 µM (inactive)	> 100 µM (inactive)	> 100 µM (inactive)	> 100 µM (inactive)	> 100 µM (inactive)
Cc1csc(N/C=C2\C(=O)Oc3ccccc3C2=O)n1	35.8 µM (inactive)		36 µM (inactive)	25.9 µM (inactive)	20.2 µM (inactive)	24.9 µM (inactive)	24.2 µM (inactive)	35.7 µM (inactive)	58.6 µM (inactive)	32 µM (inactive)	30.2 µM (inactive)		26.5 µM (inactive)	33.7 µM (inactive)	17.1 µM (inactive)	11.7 µM (inactive)	38.7 µM (inactive)		26.4 µM (inactive)	10.4 µM (inactive)
COC(=O)CNC(=O)C(CSC(=O)OCC1c2ccccc2-c2ccccc21)NC(=O)CCC(NC(=O)OCC1c2ccccc2-c2ccccc21)C(=O)OC (centres undefined)	14 µM (inactive)	19.1 µM (inactive)		18.5 µM (inactive)	16.6 µM (inactive)	25.7 µM (inactive)	99.1 µM (inactive)	41 µM (inactive)	25.6 µM (inactive)	16.8 µM (inactive)	30.8 µM (inactive)	16.8 µM (inactive)	21.3 µM (inactive)	23.8 µM (inactive)	36.7 µM (inactive)	18.7 µM (inactive)	14.5 µM (inactive)	24.4 µM (inactive)	4.65 µM (inactive)	
OCC1OC(c2cccc3cc(O)c(O)cc23)CC1O (centres undefined)		42.3 µM (inactive)	> 100 µM (inactive)	> 100 µM (inactive)	> 100 µM (inactive)	> 100 µM (inactive)	66.7 µM (inactive)	> 100 µM (inactive)	> 100 µM (inactive)	> 100 µM (inactive)	> 100 µM (inactive)		93.1 µM (inactive)	> 100 µM (inactive)	> 100 µM (inactive)	> 100 µM (inactive)	> 100 µM (inactive)	80.7 µM (inactive)	> 100 µM (inactive)	> 100 µM (inactive)
Cc1c(CN)c(C)c(CN)c(C)c1CN	> 100 µM (inactive)	> 100 µM (inactive)	> 100 µM (inactive)	> 100 µM (inactive)	> 100 µM (inactive)	> 100 µM (inactive)	> 100 µM (inactive)	> 100 µM (inactive)	> 100 µM (inactive)	> 100 µM (inactive)	> 100 µM (inactive)		> 100 µM (inactive)	> 100 µM (inactive)	> 100 µM (inactive)		> 100 µM (inactive)	> 100 µM (inactive)	86.7 µM (inactive)	> 100 µM (inactive)
CC1(C)COC(c2ccccc2-c2ccccc2)=N1	> 100 µM (inactive)	> 100 µM (inactive)	83 µM (inactive)	> 100 µM (inactive)	56.6 µM (inactive)	> 100 µM (inactive)	> 100 µM (inactive)	> 100 µM (inactive)	> 100 µM (inactive)	> 100 µM (inactive)	> 100 µM (inactive)	70.5 µM (inactive)	> 100 µM (inactive)	71.6 µM (inactive)		67.6 µM (inactive)	59.2 µM (inactive)	> 100 µM (inactive)	38.7 µM (inactive)	
O=[N+]([O-])c1ccc([I+]c2ccccc2)cc1	2.49 µM (inactive)	5.4 µM (inactive)	2.97 µM (inactive)	4.97 µM (inactive)	3.95 µM (inactive)	8.2 µM (inactive)	9.08 µM (inactive)	8.3 µM (inactive)	7.98 µM (inactive)	5.41 µM (inactive)	5.52 µM (inactive)	3.54 µM (inactive)	6.61 µM (inactive)	5.52 µM (inactive)	8.91 µM (inactive)	6.03 µM (inactive)	6.64 µM (inactive)	5.52 µM (inactive)	1.92 µM (inactive)	
N/C(=N\n1c(=S)[nH]c2ccccc2c1=O)Nn1c(=S)[nH]c2ccccc2c1=O	18.8 µM (inactive)			33.7 µM (inactive)	53.3 µM (inactive)	36.9 µM (inactive)	21.7 µM (inactive)	47.6 µM (inactive)	80.4 µM (inactive)	28.8 µM (inactive)	51.8 µM (inactive)	35.3 µM (inactive)	21.1 µM (inactive)	88.3 µM (inactive)	> 100 µM (inactive)	14.3 µM (inactive)	> 100 µM (inactive)	44.1 µM (inactive)	13.3 µM (inactive)	25.1 µM (inactive)
